Experiment [1] deals with HEK293. Put plainly: optical interference in Abeta FP readout, dose response, artefact control for IDE activator project, biochemical, fluorescence polarization (AID 588442). The experiment is classed as functional, cell-based. Conditions: Homo sapiens.
Experiment [2] deals with HEK293. Description: membrane integrity loss in HEK cells – cell-based, fluorescence, cytotoxicity control for IDE activator project, dose response (AID 588440).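 Also: cytotoxicity by LDH release measuring loss of membrane integrity.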 The format is functional. As to conditions: Homo sapiens.
Experiment [3] addresses T1, Insulin-degrading enzyme (Homo sapiens, UniProt P14735).
T1 sequence (P14735 whole entry): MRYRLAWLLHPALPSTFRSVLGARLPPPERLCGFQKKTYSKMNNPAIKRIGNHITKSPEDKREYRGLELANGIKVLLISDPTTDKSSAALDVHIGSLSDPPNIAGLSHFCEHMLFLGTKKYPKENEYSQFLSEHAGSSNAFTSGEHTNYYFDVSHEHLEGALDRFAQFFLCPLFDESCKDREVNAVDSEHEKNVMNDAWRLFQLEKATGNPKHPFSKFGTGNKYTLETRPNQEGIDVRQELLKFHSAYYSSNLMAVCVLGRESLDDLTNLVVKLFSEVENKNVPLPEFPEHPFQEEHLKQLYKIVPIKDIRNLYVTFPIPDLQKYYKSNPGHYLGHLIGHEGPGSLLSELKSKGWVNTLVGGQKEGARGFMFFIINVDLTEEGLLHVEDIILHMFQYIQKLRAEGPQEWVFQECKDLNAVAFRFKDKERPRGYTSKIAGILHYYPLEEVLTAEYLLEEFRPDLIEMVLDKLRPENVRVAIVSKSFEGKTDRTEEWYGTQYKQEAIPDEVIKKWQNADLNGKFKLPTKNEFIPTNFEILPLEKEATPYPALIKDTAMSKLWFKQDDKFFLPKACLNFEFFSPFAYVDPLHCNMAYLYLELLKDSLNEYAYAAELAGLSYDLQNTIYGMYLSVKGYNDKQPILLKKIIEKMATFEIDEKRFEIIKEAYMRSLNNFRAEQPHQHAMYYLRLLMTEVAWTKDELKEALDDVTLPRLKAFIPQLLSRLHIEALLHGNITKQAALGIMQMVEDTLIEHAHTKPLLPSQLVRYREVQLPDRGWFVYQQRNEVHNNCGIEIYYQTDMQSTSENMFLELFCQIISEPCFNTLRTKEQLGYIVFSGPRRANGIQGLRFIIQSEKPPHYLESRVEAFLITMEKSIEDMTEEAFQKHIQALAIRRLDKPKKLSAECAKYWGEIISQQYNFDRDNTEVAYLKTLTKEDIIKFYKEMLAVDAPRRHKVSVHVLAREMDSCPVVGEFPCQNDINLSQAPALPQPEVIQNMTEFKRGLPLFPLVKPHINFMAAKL
Put plainly: recombinant IDE activation, cell-free – biochemical, fluorescence polarization, counter-screen for IDE activator project, dose response (AID 588681).

Experiment [4] addresses T1, Insulin-degrading enzyme. Description: cellular IDE activation of Abeta substrate cleavage – fluorescence polarization, HEK cells, dose response (AID 588439). The format is functional, cell-based.
In experiment [5] the target is T2, Orexin/Hypocretin receptor type 1 (Homo sapiens, UniProt O43613).
T2 sequence (O43613 whole entry): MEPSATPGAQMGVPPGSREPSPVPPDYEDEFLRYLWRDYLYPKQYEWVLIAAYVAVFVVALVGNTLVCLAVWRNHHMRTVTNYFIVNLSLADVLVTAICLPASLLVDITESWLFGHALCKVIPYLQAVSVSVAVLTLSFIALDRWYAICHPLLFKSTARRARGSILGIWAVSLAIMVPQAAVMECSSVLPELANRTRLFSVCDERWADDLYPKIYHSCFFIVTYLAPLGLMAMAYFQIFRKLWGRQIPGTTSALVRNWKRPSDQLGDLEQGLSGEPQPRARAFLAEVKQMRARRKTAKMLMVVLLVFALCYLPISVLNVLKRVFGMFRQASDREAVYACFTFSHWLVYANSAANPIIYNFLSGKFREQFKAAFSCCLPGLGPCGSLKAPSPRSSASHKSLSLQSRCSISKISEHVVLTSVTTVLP
Description: Fluorescence-based cell-based high throughput dose response assay for antagonists of the orexin 1 receptor (OX1R; HCRTR1). [Related pubchem assays (depositor defined):AID434989, AID435008, AID463079, AID485270, AID492963, AID492964, AID492965, AID493232, AID504717, AID504718]. The experiment is classed as functional.

Experiment [6] deals with T2, Orexin/Hypocretin receptor type 1. Put plainly: Homogeneous Time Resolved Fluorescence (HTRF)-based cell-based high throughput dose response assay for antagonists of the orexin 1 receptor (OX1R; HCRTR1). [Related pubchem assays (depositor defined):AID434989, AID435008, AID463079, AID485270, AID492963, AID492964, AID492965, AID493232, AID504717, AID504718]. The experiment is classed as functional.

The target of experiment [7] is T3, Orexin receptor type 2 (Homo sapiens, UniProt O43614).
T3 sequence (O43614 whole entry): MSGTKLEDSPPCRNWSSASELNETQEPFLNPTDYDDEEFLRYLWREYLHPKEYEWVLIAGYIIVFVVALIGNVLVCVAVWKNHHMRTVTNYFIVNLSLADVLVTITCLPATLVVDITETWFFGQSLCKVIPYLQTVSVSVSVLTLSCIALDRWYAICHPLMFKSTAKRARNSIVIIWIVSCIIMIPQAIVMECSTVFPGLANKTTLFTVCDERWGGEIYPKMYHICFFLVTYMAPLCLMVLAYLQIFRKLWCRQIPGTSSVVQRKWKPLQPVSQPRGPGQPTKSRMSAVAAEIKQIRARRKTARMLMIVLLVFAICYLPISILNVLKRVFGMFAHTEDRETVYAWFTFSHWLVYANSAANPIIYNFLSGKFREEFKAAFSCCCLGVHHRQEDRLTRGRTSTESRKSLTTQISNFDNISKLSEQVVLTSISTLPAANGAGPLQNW
Put plainly: Counterscreen assay for antagonists of the orexin 1 receptor (OX1R; HCRTR1): Homogeneous Time Resolved Fluorescence (HTRF)-based cell-based dose response assay for antagonists of the orexin 2 receptor (OX2R; HCRTR2), run by assay provider. The experiment is classed as functional.

Experiment [8] is described as follows: Counterscreen for antagonists of the orexin 1 receptor (OX1R; HCRTR1): Fluorescence-based cell-based high throughput dose response assay to identify antagonists of the parental CHO cell line. [Related pubchem assays (depositor defined):AID434989, AID435008, AID463079, AID485270, AID492963, AID492964, AID492965, AID493232, AID504699, AID504701]. The format is functional.

Another experiment concerns CHO-K1. Description: Counterscreen for antagonists of the orexin 1 receptor (OX1R; HCRTR1): Homogeneous time resolved fluorescence (HTRF)-based cell-based dose response assay to identify antagonists of the parental CHO-K1 cell line. [Related pubchem assays (depositor defined):AID434989, AID435008, AID463079, AID485270, AID492963, AID492964, AID492965, AID493232, AID504699, AID504701]. Conditions: Cricetulus griseus. The experiment is classed as functional.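 Also: potency for inhibition of ATP-stimulated IP1 production as antagonists.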

In experiment [9] the target is T3, Orexin receptor type 2. Put plainly: Counterscreen assay for antagonists of the orexin 1 receptor (OX1R; HCRTR1): Fluorescence-based cell-based dose response assay for antagonists of the orexin 2 receptor (OX2R; HCRTR2), run by assay provider. The format is functional.
For experiment [10], the target named is T4, Polyadenylate-binding protein 1 (Homo sapiens, UniProt P11940). Description: MLLE domain peptide-binding blockers, IC50 – biochemical, fluorescence polarization, FITC-PAM2 peptide, dose response (AID 602259). The format is functional. Conditions: read-out: IC50_Mean.
Experiment [11] deals with T4, Polyadenylate-binding protein 1. Put plainly: MLLE binding blockers, Cy5 peptide tracer – biochemical, fluorescence polarization, Cy5-PAM2 peptide, secondary, miRNA deadenylation inhibitor project, dose response (AID 602260). The experiment is classed as functional. Conditions: read-out: IC50_Mean.
Experiment [12] has as its target T5, Ubiquitin-conjugating enzyme E2 N (Homo sapiens, UniProt P61088).
T5 sequence (P61088 whole entry): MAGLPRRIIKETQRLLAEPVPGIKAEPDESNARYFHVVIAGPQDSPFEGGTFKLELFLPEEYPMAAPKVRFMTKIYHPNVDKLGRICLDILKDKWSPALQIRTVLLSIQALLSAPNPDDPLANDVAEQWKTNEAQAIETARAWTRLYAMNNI
The experiment is classed as functional.

The target in the next experiment is T6, Bcl-2-related protein A1 (Mus musculus, UniProt Q07440).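 Also: confirmatory dose–response counterscreen on Bfl-1, used to check hits from a UBC13 polyubiquitin inhibitor campaign.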
T6 sequence (Q07440 whole entry): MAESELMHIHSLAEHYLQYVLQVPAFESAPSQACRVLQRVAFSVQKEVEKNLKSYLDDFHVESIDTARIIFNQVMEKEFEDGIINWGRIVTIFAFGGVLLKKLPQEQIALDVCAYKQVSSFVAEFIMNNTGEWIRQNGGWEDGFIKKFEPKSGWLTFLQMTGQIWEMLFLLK
The format is functional.

Experiment [13] deals with T5, Ubiquitin-conjugating enzyme E2 N. The format is functional. The source holds these as a separate data set.
Experiment [14] has as its target Dual specificity tyrosine-phosphorylation-regulated kinase 1B (Homo sapiens, UniProt Q9Y463). Put plainly: Navigating the Kinome. Panel member name: DYRK1B. The format is functional.
The next experiment addresses LIM domain kinase 1 (Homo sapiens, UniProt P53667). Put plainly: Navigating the Kinome. Panel member name: LIMK1. The experiment is classed as functional.
For experiment [15], the target named is Macrophage-stimulating protein receptor (Homo sapiens, UniProt Q04912). Put plainly: Navigating the Kinome. Panel member name: MST1R. The format is functional.
In experiment [16] the target is ALK tyrosine kinase receptor (Homo sapiens, UniProt Q9UM73). The experiment is classed as functional.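 Also: ALK tested as one member of a kinase panel screen.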

These results are taken from ChEMBL document CHEMBL1201862, “PubChem BioAssay data set” (2004).

Calls of active or inactive are those of the source.

T4 sequence (P11940 whole entry, the tested form may be a part): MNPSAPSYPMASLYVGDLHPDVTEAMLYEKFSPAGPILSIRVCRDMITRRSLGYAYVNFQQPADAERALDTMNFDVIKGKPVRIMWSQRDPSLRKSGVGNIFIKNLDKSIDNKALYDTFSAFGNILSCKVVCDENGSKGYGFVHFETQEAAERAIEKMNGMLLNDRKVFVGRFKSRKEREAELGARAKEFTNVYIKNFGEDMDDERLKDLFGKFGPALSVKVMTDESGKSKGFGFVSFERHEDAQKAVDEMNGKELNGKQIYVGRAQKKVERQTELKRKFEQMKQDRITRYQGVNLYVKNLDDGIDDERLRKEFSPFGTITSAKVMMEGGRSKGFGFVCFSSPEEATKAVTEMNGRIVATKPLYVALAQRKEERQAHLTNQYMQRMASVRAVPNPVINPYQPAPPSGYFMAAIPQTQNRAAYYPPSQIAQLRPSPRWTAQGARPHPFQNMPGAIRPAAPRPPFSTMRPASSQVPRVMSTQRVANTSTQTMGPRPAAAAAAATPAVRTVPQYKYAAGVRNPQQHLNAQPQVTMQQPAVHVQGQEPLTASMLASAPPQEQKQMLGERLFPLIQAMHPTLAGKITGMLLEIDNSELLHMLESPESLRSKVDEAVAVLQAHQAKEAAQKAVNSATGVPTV
Chain of Macrophage-stimulating protein receptor (Q04912 25-304 limits assumed): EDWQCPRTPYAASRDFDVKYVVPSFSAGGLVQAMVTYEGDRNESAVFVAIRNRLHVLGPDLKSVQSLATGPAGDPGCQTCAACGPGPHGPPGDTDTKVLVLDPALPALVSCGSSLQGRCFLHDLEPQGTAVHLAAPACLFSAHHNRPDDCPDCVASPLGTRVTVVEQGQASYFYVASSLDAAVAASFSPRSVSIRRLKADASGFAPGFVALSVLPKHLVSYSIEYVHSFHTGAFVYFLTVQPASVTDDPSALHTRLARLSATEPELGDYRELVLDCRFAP
Chain of Macrophage-stimulating protein receptor (Q04912 310-1400 limits assumed): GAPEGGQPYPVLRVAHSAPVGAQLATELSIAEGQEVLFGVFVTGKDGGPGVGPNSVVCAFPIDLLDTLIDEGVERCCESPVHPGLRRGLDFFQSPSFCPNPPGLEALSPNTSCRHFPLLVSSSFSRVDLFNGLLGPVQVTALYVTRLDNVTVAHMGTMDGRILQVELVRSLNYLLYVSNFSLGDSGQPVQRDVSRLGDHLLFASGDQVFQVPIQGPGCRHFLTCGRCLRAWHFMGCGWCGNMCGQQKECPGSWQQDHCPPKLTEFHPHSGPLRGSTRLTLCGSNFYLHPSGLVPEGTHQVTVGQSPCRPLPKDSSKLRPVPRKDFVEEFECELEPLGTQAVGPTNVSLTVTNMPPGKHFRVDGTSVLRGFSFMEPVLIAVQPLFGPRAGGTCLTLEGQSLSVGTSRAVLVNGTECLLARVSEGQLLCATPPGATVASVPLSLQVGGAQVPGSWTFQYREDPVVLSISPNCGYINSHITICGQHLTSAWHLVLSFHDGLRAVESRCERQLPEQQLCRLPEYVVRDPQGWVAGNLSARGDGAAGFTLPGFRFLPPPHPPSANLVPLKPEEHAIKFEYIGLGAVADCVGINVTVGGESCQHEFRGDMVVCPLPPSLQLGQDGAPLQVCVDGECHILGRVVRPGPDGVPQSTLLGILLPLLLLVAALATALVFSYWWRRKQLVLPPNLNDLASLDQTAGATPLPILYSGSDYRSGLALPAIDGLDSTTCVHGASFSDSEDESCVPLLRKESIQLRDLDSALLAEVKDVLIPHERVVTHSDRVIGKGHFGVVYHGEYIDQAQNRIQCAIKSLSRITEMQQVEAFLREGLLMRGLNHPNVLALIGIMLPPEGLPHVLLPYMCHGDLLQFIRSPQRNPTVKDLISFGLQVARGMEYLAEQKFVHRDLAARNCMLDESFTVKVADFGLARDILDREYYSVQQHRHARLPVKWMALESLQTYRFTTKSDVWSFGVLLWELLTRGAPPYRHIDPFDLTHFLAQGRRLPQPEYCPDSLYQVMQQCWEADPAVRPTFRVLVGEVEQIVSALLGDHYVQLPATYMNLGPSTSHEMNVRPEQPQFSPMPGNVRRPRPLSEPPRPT
Chain of ALK tyrosine kinase receptor (Q9UM73 whole entry): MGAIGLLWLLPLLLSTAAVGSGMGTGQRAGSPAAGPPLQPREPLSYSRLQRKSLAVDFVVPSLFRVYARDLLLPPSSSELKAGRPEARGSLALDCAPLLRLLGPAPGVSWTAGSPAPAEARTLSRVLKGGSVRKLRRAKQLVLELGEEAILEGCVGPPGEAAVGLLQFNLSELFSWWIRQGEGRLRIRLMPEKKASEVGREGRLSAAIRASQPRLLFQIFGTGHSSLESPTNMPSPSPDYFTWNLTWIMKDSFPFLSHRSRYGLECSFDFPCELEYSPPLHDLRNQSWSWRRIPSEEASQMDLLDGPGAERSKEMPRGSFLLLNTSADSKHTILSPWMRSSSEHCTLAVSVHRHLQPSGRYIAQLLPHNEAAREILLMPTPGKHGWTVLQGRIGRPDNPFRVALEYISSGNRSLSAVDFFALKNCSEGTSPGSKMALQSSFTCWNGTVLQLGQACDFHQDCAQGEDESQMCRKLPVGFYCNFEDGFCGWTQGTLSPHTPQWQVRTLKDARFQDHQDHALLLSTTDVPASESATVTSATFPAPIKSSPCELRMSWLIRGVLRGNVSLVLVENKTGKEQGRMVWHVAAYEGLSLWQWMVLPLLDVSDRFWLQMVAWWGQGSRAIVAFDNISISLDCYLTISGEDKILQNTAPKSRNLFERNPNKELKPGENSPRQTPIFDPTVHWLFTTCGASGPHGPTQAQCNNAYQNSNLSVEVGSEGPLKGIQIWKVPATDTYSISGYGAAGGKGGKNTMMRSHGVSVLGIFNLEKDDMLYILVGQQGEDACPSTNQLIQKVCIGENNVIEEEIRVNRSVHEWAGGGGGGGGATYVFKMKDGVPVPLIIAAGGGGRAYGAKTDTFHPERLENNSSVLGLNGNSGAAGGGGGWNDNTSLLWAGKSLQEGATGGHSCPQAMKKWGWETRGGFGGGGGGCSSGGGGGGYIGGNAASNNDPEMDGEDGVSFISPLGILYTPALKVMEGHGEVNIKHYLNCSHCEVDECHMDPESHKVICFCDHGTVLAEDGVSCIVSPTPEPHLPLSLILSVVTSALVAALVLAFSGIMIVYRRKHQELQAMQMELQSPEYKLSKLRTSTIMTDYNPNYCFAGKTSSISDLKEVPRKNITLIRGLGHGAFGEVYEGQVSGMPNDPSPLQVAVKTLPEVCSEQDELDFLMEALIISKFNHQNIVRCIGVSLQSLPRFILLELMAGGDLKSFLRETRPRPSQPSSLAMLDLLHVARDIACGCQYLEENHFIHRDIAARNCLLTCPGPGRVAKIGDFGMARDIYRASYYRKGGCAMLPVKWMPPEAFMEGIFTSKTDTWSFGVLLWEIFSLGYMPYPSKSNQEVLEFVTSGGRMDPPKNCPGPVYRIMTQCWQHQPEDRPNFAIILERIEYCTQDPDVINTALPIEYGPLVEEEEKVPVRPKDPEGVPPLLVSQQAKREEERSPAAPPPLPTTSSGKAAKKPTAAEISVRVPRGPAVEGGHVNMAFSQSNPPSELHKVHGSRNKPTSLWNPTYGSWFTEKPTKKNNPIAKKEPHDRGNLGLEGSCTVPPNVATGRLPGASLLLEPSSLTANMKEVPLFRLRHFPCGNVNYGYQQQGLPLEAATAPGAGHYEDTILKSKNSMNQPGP
Chain of Dual specificity tyrosine-phosphorylation-regulated kinase 1B (Q9Y463 whole entry, the tested form may be a part): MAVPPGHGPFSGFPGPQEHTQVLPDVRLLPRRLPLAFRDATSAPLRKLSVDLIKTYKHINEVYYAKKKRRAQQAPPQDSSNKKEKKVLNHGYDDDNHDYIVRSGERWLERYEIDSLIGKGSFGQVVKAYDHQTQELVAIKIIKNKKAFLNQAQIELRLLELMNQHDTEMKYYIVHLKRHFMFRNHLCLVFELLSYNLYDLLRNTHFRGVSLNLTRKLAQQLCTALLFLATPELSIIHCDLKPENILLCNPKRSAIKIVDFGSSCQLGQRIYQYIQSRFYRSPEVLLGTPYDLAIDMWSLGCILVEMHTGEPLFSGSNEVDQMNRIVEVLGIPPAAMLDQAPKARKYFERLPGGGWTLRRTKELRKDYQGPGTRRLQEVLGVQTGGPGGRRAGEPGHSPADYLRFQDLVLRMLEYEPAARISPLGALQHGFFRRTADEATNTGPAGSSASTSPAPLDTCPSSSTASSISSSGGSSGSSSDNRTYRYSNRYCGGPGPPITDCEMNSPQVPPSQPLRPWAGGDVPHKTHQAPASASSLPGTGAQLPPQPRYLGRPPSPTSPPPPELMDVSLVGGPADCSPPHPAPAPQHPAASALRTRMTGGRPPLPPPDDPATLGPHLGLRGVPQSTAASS
Chain of LIM domain kinase 1 (P53667 whole entry, the tested form may be a part): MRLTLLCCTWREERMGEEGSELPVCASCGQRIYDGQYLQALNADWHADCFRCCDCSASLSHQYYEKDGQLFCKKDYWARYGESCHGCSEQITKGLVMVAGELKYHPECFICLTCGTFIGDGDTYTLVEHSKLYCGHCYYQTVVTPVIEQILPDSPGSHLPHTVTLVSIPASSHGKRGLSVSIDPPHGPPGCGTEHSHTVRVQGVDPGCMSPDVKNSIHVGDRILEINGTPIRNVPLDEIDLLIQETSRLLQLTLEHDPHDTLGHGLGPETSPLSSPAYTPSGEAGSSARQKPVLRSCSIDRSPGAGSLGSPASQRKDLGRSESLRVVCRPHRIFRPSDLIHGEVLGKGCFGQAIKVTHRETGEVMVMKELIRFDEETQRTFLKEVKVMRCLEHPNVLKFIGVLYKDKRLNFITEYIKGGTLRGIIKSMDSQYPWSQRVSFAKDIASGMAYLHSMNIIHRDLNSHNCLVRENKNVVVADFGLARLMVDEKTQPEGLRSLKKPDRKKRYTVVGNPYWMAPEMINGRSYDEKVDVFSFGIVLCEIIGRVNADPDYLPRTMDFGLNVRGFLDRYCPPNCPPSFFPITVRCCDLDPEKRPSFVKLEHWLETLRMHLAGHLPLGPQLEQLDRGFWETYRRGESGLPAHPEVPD

Turning to `O=C(c1ccccc1)C1NC1c1ccccc1` (centres undefined), the EC50 in the experiment with HEK293 [1], at Insulin-degrading enzyme [3] and at Insulin-degrading enzyme [4] was > 54.7 µM (inactive) each time. Also, the IC50 in the experiment with HEK293 [2] was > 89.3 µM (inactive).
On to `Cc1ccc(N(C)S(=O)(=O)c2cccc(C(=O)NCC(c3cccs3)N3CCOCC3)c2)cc1` (centres undefined), for which the IC50 in [5] was 12 µM (inactive); in [6], 715 nM (active); at Orexin receptor type 2 [7], 3.35 µM (active); in experiment [8], > 49.8 µM (inactive); with CHO-K1, > 66.2 µM (inactive); at Orexin receptor type 2 [9], > 88.8 µM (inactive).
With `O=C(NC(=S)Nc1cccc2cccnc12)c1cccs1`, the IC50 was > 5.52 µM (active) in [5]; > 3.31 nM (active) in experiment [6]; > 50 µM (inactive) on Orexin receptor type 2 [7]; > 66 µM (inactive) in experiment [10]; > 49.7 µM (inactive) in [8]; > 66.2 µM (inactive) in the experiment with CHO-K1. Moreover, the IC50 at Orexin receptor type 2 [9] is > 88.8 µM (inactive); in experiment [11] it was > 66 µM (inactive).
For the molecule `C#CCOCCOCCOCCNc1nc(N2CCN(C(=O)CCCCCCCCCCNC(=O)[C@H](CCCCN)n3cc(C[C@@H](C)CC)nn3)CC2)nc(N2CCN(C(=O)CCCCCCCCCCNC(=O)[C@H](CCCN=C(N)N)n3cc(C[C@@H](C)CC)nn3)CC2)n1`, the IC50 in experiment [12] was 1.44 µM (active); in the experiment on HEK293 [2], 2.17 µM (active); on Bcl-2-related protein A1, 4.6 µM (active); in experiment [13] it was 2 µM (active). Also, the EC50 in the experiment with HEK293 [1] is > 54.7 µM (inactive); on Insulin-degrading enzyme [3], > 2.03 µM (active); at Insulin-degrading enzyme [4] it was > 2.03 µM (active).
For `Nc1ccc2cc(NCCc3ccccc3)cc(Nc3ncccn3)c2n1`, the Ki was 2 µM (active) in experiment [14], 631 nM (active) at LIM domain kinase 1, 3.16 µM (active) in experiment [15] and 1.58 µM (active) in experiment [16].
